Experimental data as given in US8192767B2, “Antioxidant compositions comprising extracts of myrtle and rosemary” (Nuraging Biotech S.R.L., priority 2006, dated 2012).

Key:
[1] = DPPH (2,2-diphenyl-1-picryl-hydrazyl) spectrophotometric antioxidant test in ethanol, 517 nm; format: biochemical; settings: DPPH 6.0×10^−6 M
Excerpt: The antioxidant activity of the combination which is the object of the present invention can be assayed in vitro using the DPPH (2,2-diphenyl-1-picryl-hydrazyl) spectrophotometric method. This method makes it possible to determine the antioxidant potential of a molecule to be assayed by measuring the variation of the absorbance of the radical DPPH in its presence at the wavelength of 517 nm (as reported in the literature) [Blois M. S., Antioxidant determination by the use of a stable free radical—Nature, 181:1199-1200; (1958)], according to the reaction: Z·+AH=ZH+A· [1] where: • Z· is the radical DPPH • AH is the single antioxidant (reducing) molecule present in the composition or in the extract • ZH is the reduced form of DPPH • A· is the free radical produced by oxidation of the antioxidant molecule.
The greater the reduction of the absorbance of the radical DPPH in solution, the greater will be the antioxidant potential of the molecule studied. The final results of the assay are expressed as EC50, i.e. as the concentration of antioxidant molecule at which there is a 50% reduction of the DPPH radical according to the following formula: % Inhibition=[A(T0)−A(Tn/A(T0)] • A(T0)=absorbance of the control sample at time 0 • A(Tn)=absorbance in the presence of the antioxidant sample at time n.
The antioxidant capacity of the combination according to the present invention was assayed in ethanol, using a DPPH concentration of 6.0×10^−6 M and final concentrations of each extract, previously solubilised in ethanol, ranging from 1 mcg/ml to 3 mg/ml. For the purposes of evaluating the synergistic effect the extracts were also assayed in a mixture in ratios ranging from 0.1:1 to 9.9:1. The myrtle and rosemary extracts were each subjected to the same extraction procedure, selected from among those indicated above, then brought to dryness and redissolved in ethanol at the desired concentrations so as to standardise the evaluation methodology. The absorbance was then determined at the wavelength of 517 nm in 1 cm quartz cells.

[2] = tested on: rat pheochromocytoma PC12 cell line; assay: ATPLite test: ATP production of PC12 cells after H2O2-induced toxicity; format: cell-based; settings: H2O2 200 μM without addition of extracts
Excerpt: The test used was the ATPLite™ test (Perkin Elmer, Milan), an ATP monitoring system based on luciferase, which permits assessment of the cytostatic and proliferative effects of various biological compounds. [Cree I. A. and Andreotti P. E. Measurement of cytotoxicity by ATP-based luminescence assay in primary cell cultures and cell lines—Toxicology in Vitro, 11, 553-556; (1997); Guan S., Bao Y. M., Jiang B., An L. Protective effect of protocatechuic acid from Alpinia oxyphylla on hydrogen peroxide-induced oxidative PC12 cell death—Eur. J. Pharmacol. 24: 538; (2006)].
The rat pheochromocytoma PC12 cell line (European Collection of Cell Cultures—ECACC, Sigma Aldrich, Milan) was used to evaluate the potential protective effects of extracts of rosemary (the same extract as described above in example 1) and of myrtle (the same extract as described above in example 2) against the toxicity induced by hydrogen peroxide (H2O2). The cells were grown on 96-well plates treated with poly-D-lysine (Sigma Aldrich, Milan) in D-MEM culture medium added with fetal bovine serum (FBS), penicillin/streptomycin, gentamycin, L-glutamine (all Invitrogen, Milan). […] After 24 hours the activity of the extracts on ATP production was evaluated using a Victor 3 spectrophotometer (Perkin Elmer, Milan). […]

Row | SMILES | decrease in the absorbance of DPPH ([1]; BHA 0.01 mg/ml in ethanol) [%] | decrease in the absorbance of DPPH ([1]; BHA 0.1 mg/ml in ethanol) [%] | decrease in the absorbance of DPPH ([1]; BHA 1 mg/ml in ethanol) [%] | ATP production vs vehicle [2]
1 | COc1ccc(O)c(C(C)(C)C)c1 [BHA, butylated hydroxyl anisol] | 96.63 | 95.41 | 92.18 | 
2 | OO [H2O2, hydrogen peroxide] |  |  |  | −80%±4.1
